Source: US20250057993A1, “LABELED INHIBITORS OF PROSTATE SPECIFIC MEMBRANE ANTIGEN (PSMA), THEIR USE AS IMAGING AGENTS AND PHARMACEUTICAL AGENTS FOR THE TREATMENT OF PSMA-EXPRESSING CANCERS” (Universität Heidelberg, priority 2018, published 2025)
Like-named read-outs stand apart in the source and are kept apart here.

Experiments:
PSMA [1] = target: T1, PSMA (Homo sapiens, UniProt Q04609); assay: Competitive binding assay (Ki) on PSMA-positive C4-2 cells; design: host or cells: C4-2 cells; details: non-labeled ligands vs 0.75 nM 68Ga-PSMA-HBED-CC dimer
Protocol: In vitro and in vivo experiments were performed using the PSMA-positive C4-2 cell line, a subline of the LNCaP (lymph node carcinoma of the prostate) cell line (CRL-3314; American Type Culture Collection). C4-2 cells were cultivated in RPMI 1640 (PAN Biotech) medium supplemented with 10% fetal calf serum and stable glutamine (PAN Biotech). Cells were grown at 37° C. and incubated with humidified air equilibrated with 5% CO2.
A MultiScreenHTS-DV filter plate was incubated at room temperature with 100 μl PBS containing 1% BSA per well for 30 min. After removal of the PBS/BSA solution 1×10^5 C4-2 cells were added Opti-MEM to each well. […] All non-labeled compounds were dissolved in Opti-MEM at a volume of 300 μl with the following concentrations: 0, 0.5, 1, 2.5, 5, 10, 25, 50, 100, 500, 1000 and 5000 nM. Subsequently, 3 μl of the radiolabeled compound was added. 50 μl of this mixture was taken to obtain a 0.75 nM concentration of the radiolabeled ligand. After 45 min incubation at 37° C., the cells were washed twice with PBS on a multiscreen vacuum manifold (Millipore, Billerica, MA) and the cell-bound radioactivity was measured with a gamma counter (Packard Cobra II, GMI, Minnesota, USA). The inhibitory potency was determined using ^68Ga-labeled PSMA-HBED-CC dimer (i.e. PSMA-11) as reference. The Ki was calculated using a nonlinear regression algorithm (Graph Pad Prism 5.01 software). The experiments were performed in quadruplicate.

C4-2 tumor = assay: Planar scintigraphic imaging of 203Pb-labeled compounds; assay type: in vivo, BALB/c nu/nu mice; details: tail vein injection
Protocol: (§1) The in vivo experiments were carried out in accordance with the laws of the German Federal Republic. For PET imaging and biodistribution studies, male nude mice (Balb/c nu/nu mice) (19-23 g) were obtained from Charles River at 4-5 weeks of age and kept under specific-pathogen-free condition for 1 week prior to the study. The mice were housed with a 12-hour/12-hour light/dark cycle and had free access to water and food. The mice were anesthetized with 2% sevoflurane and inoculated subcutaneously on the right trunk with 5×10^7 C4-2 cells in 50% Matrigel in Opti-MEM I (1×) medium. Organ distribution studies were performed, when the size of the tumor was approximately 1 cm^3.
For small-animal imaging the mice were anesthetized with 2% sevoflurane. 0.1 nmol (1.0 MBq) of the ^203Pb-ligand was injected into the tail vein. Serial planar scans were performed using a Gamma Imager SCT (Biospace Lab, Paris, France) with a parallel collimator (35 mm/1.8 mm/0.2 mm) after 10 min, 1 h, 4 h, 24 h. and 72 h. Based on the imaging results, compound CA012 was chosen for biodistribution studies. Experiments were performed in triplicate.

[2] = Serum stability of 68Ga, 177Lu and 64Cu labeled compounds (iTLC, HPLC, pellet activity); assay type: in vitro ADME; details: 177Lu-labeled, human serum, 24 h
Protocol: After radiolabeling of the compounds the serum stability was determined by iTLC and HPLC analysis. 50 μL (20 MBq) of the labeled ligands was added to 200 μL of human serum (H4522; Sigma-Aldrich, Germany) and incubated at 37° C. for different time-points (0, 2 h, 24 h, 48 h and 72 h). 0.5×5 cm strips of iTLC-SG-glass microfiber chromatography paper (Folsom, California USA) were used. 0.5 μL of the radiolabeled compound in serum was applied to each strip at 1 cm from the bottom (origin) and the solvent (sodium citrate buffer (0.5 M, pH=5.0) in case of ^177Lu ligands, (1% Na-EDTA, pH=4) in case of Cu labeled ligands) front was allowed to rise to 5 cm from the bottom. Finally, each strip was cut in 8 pieces; each piece was measured in a gamma-counter. For HPLC analysis an equal volume of ACN was added to the samples to precipitate the serum proteins. Subsequently, the samples were centrifuged for 10 min at 13,000 rpm and the pellet and supernatant were separated and the relative activity was measured. The results are expressed as percent. In addition, an aliquot of the supernatant was analyzed by radio-HPLC (0-100% ACN in 5 min, Monolith column), with a flow rate of 2 mL/min.

C4-2 tumor xenograft = assay: Small-animal PET in C4-2 tumor bearing mice; assay type: in vivo, BALB/c nu/nu mouse
Protocol: as §1
For small-animal PET imaging with various ^64Cu-labeled PSMA ligands, 0.2 nmol, 10 MBq of approximately 100 μL in 0.9% saline the radiolabeled compound were injected into a C4-2 tumor bearing mouse. The dynamic PET was recorded in a small animal PET scanner (Siemens Inveon D-PET, Malvern, PA USA). The SUV values were obtained from conventional (non-dynamic) PET images. The formula for the SUV was:
The volumes-of-interest (VOIs) were obtained by manual delineation of the appropriate whole tissue (heart, kidneys, bladder, tumor—with an approximate volume of 100-500 μl)—or parts of the tissue liver and muscle. […]

[3] = In vivo fate and metabolization of 64Cu-chloride and 64Cu-CA003 (PET, radio-HPLC of tissue extracts); design: species or system Swiss mice; details: 10 min p.i., mouse without tumor
Protocol: The metabolization in vivo was studied by radio-HPLC analysis. Female Swiss mice (n=3) without tumor were injected via the tail vein with ^64Cu-chloride (10 MBq in approximately 100 μL of 0.9% saline) or ^64Cu-CA003 (9 MBq, 0.30 nmol in approximately 100 μL of 0.9% saline). PET imaging was performed 10 min post injection and subsequently blood, the liver and the kidneys were harvested. The tissues were rinsed with precooled saline, blotted dry and treated with 2 mL of 0.1 M NH4OAc/EtOH (35:65). The tissues were homogenized using an Ultra-Turrax T8 (IKA Labortechnik, Germany). The samples were centrifuged for 10 min at 13,000 rpm (4° C.). Subsequently, the pellet and supernatant were separated and the relative activity was measured. The results are expressed as percent. Additionally, an aliquot of supernatant was prepared for HPLC measurement by precipitation of the proteins with ACN as described above. The sample was analyzed by radio-HPLC (0-100% ACN in 5 min, Monolith column), with a flow rate of 2 mL/min. Fractions were collected every ten seconds over the whole course of the chromatography and the relative activity of the samples was measured in a gamma-counter to reconstruct a chromatogram.

PSMA [4] = target: T1, PSMA; design: PET/CT imaging in first patients was performed; from tissue; host or cells: tissues and tumour lesions of prostate cancer patients (in vivo PET/CT); details: values from Afshar-Oromieh et al., 2015, cited from earlier work
[5] = In vivo metabolite analysis of 177Lu-labeled ligands (radio-HPLC of tissue extracts); design: species or system BALB/c nude mouse; details: 1 h p.i., 10 MBq, 0.2 nmol
Protocol: FIG. 24. In vivo metabolite analysis of ^177Lu-CA028 in comparison with ^177Lu-PSMA-617 (10 MBq, 0.2 nmol in approximately 100 μl of 0.9% saline) in a BALB/c nude mouse (tumor) at 1 h p.i. […] This proves the integrity of the complex within the main distribution period.

T1 sequence (Q04609 whole entry): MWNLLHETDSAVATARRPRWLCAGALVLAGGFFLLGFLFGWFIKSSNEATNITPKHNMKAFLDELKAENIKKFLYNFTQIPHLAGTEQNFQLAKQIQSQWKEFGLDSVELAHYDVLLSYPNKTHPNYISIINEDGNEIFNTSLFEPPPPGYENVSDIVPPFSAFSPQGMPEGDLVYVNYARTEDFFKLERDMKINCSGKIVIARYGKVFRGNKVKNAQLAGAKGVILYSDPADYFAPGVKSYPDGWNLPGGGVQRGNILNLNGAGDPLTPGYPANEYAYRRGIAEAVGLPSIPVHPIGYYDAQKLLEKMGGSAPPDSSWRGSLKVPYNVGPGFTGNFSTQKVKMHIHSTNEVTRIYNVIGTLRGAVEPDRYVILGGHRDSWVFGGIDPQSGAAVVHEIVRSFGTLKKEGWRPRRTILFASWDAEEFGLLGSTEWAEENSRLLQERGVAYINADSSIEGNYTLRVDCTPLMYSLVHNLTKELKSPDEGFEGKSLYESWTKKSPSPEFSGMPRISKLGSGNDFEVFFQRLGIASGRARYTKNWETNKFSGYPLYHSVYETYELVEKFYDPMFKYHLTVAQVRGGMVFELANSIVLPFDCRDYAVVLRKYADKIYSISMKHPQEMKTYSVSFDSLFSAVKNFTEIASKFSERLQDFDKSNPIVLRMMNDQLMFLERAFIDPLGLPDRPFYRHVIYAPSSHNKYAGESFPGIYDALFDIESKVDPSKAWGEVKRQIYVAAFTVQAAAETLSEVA

O=C(O)CCC(NC(=O)NC(CCCCNC(=O)C(Cc1ccc2ccccc2c1)NC(=O)C1CCC(CNC(=O)c2ccc(CN3CCCNCCNCCCNCC3)cc2)CC1)C(=O)O)C(=O)O (centres unmarked) [CA003]
Ki / binding affinity to PSMA (in words) (PSMA [1]): particularly high affinity

NC(=O)CN1CCN(CC(N)=O)CCN(CC(N)=O)C(Cc2ccc(NC(=S)NCC3CCC(C(=O)NC(Cc4ccc5ccccc5c4)C(=O)NCCCCC(NC(=O)NC(CCC(=O)O)C(=O)O)C(=O)O)CC3)cc2)CN(CC(N)=O)CC1 (centres unmarked) [CA009]
tumor uptake / retention in planar scintigraphy (in words) (C4-2 tumor): high uptake of the tracer in the tumor tissue | Ki / binding affinity to PSMA (in words) (PSMA [1]): highest affinity

NC(=O)CN1CCN(CC(N)=O)CCN(CC(=O)NCC2CCC(C(=O)NC(Cc3ccc4ccccc4c3)C(=O)NCCCCC(NC(=O)NC(CCC(=O)O)C(=O)O)C(=O)O)CC2)CCN(CC(N)=O)CC1 (centres unmarked) [CA012]
tumor uptake / retention in planar scintigraphy (in words) (C4-2 tumor): high uptake of the tracer in the tumor tissue | Ki / binding affinity to PSMA (in words) (PSMA [1]): highest affinity

O=C(O)CCC(NC(=O)NC(CCCCNC(=O)C(Cc1ccc2ccccc2c1)NC(=O)C1CCC(CNC(=S)Nc2ccc(CC3CN(CC(=O)O)CCN(CC(=O)O)CCN(CC(=O)O)CCN3CC(=O)O)cc2)CC1)C(=O)O)C(=O)O (centres unmarked) [CA029]
free 177Lu [2]: no free activity

O=C(O)CC[C@H](NC(=O)N[C@@H](CCCCNC(=O)[C@H](Cc1ccc2ccccc2c1)NC(=O)[C@H]1CC[C@H](CNC(=O)CN2CCN(CC(=O)O)CCN(CC(=O)O)CCN(CC(=O)O)CC2)CC1)C(=O)O)C(=O)O [PSMA-617]
free 177Lu [2]: no free activity

[64Cu+2].[Cl-].[Cl-] [^64Cu-chloride]
tumor-to-liver ratio (C4-2 tumor xenograft; 2 h): 0.38 | tracer accumulation in PET images (in words) (C4-2 tumor xenograft; C4-2 tumour bearing mice): very high liver accumulation | blood circulation, maximum intensity projection PET [3]: 1.3 | kidney uptake, maximum intensity projection PET [3]: 3.4 | liver uptake, maximum intensity projection PET [3]: 2.7

O=C([O-])CN1CCN(CC(=O)[O-])CCN(CC(=O)NCC2CCC(C(=O)N[C@@H](Cc3ccc4ccccc4c3)C(=O)NCCCC[C@H](NC(=O)N[C@@H](CCC(=O)O)C(=O)O)C(=O)O)CC2)CCN(CC(=O)[O-])CC1.[68Ga+3] (some centres unmarked) [^68Ga-PSMA-617]
SUVmean Blood pool, mediastinal (PSMA [4]; 1 h): 2.5 | SUVmean Bone met (PSMA [4]; 1 h): 9.4 | SUVmean Colon (PSMA [4]; 1 h): 3.5 | SUVmean Gluteal muscle (PSMA [4]; 1 h): 0.7 | SUVmean Kidneys (PSMA [4]; 1 h): 15.6 | SUVmean Lacrimal gland (PSMA [4]; 1 h): 4.9 | SUVmean Liver (PSMA [4]; 1 h): 3.3 | SUVmean Lymph node (PSMA [4]; 1 h): 7.1 | SUVmean Nasal mucosa (PSMA [4]; 1 h): 2.9 | SUVmean Parotid gland (PSMA [4]; 1 h): 10.4 | SUVmean Prox. Small intestine (PSMA [4]; 1 h): 4.7 | SUVmean Spleen (PSMA [4]; 1 h): 4.3 | SUVmean Sublingual gland (PSMA [4]; 1 h): 4.6 | SUVmean Submandibular gland (PSMA [4]; 1 h): 10 | SUVmean Blood pool, mediastinal (PSMA [4]; 3 h): 2.4 | SUVmean Bone met (PSMA [4]; 3 h): 6.3 | SUVmean Colon (PSMA [4]; 3 h): 4.0 | SUVmean Gluteal muscle (PSMA [4]; 3 h): 0.7 | SUVmean Kidneys (PSMA [4]; 3 h): 17.0 | SUVmean Lacrimal gland (PSMA [4]; 3 h): 5.9 | SUVmean Liver (PSMA [4]; 3 h): 2.7 | SUVmean Lymph node (PSMA [4]; 3 h): 13.5 | SUVmean Nasal mucosa (PSMA [4]; 3 h): 3.4 | SUVmean Parotid gland (PSMA [4]; 3 h): 13.1 | SUVmean Prox. Small intestine (PSMA [4]; 3 h): 5.5 | SUVmean Spleen (PSMA [4]; 3 h): 3.5 | SUVmean Sublingual gland (PSMA [4]; 3 h): 4.0 | SUVmean Submandibular gland (PSMA [4]; 3 h): 12.4

O=C([O-])CN1CCN(CC(=O)[O-])CCN(CC(=O)NCC2CCC(C(=O)N[C@@H](Cc3ccc4ccccc4c3)C(=O)NCCCC[C@H](NC(=O)N[C@@H](CCC(=O)O)C(=O)O)C(=O)O)CC2)CCN(CC(=O)[O-])CC1.[177Lu+3] (some centres unmarked) [^177Lu-PSMA-617]
integrity of tracer in extracts from kidney, blood, liver and tumor (radio-HPLC) [5]: activity elutes at the retention time of the intact tracer
